Patent publication US20260174875A1 (Novo Nordisk A/S, priority 2023, published 2026)

Assay: Chemical stability assessment in formulation (UPLC-UV-MS purity loss at 37° C.)
Assay type: physicochemical
Settings: 8 mM phosphate buffer pH 7.4, 1 mg/mL, 2 weeks
Description: The assay was performed to investigate the extend of chemical degradation in vitro over time upon incubation at 37° C. for a period of 2 weeks.
Peptide solutions were prepared by dissolving freeze-dried powder in 8 mM phosphate buffer pH 7.4 to a target of 1 mg/mL. The pH of peptide solutions was adjusted to 7.4 with 0.02 M HCl or 0.02 M NaOH. Samples were filled in Agilent HPLC vials with fixed insert. Vials were capped to prevent evaporation. The HPLC vials were incubated at 37° C. and samples were withdrawn at different time points over a period of 2 weeks, flash frozen at −80° C., and stored at −20° C. until analysis.
A flow-rate of 100 μL/min was delivered with a Binary solvent manager pump having 0.1% formic acid in water as solvent A and 0.1% formic acid in acetonitrile as solvent B. Gradient elution was carried out using 20% B from 0 to 2 min followed by 20 to 50% B from 2 to 20 min in a total run time of 30 min.

Purity loss per week at 37° C.	SMILES
0.7%	CC[C@H](C)[C@H](NC(=O)[C@H](CCC(=O)O)NC(=O)[C@H](CCC(=O)O)NC(=O)[C@H](CC(C)C)NC(=O)[C@H](CC(C)C)NC(=O)[C@@H](NC(=O)[C@H](CO)NC(=O)[C@H](Cc1ccc(O)cc1)NC(=O)[C@H](CC(=O)O)NC(=O)[C@H](CO)NC(=O)[C@@H](NC(=O)[C@H](Cc1ccccc1)NC(=O)[C@@H](NC(=O)CNC(=O)[C@H](CCC(=O)O)NC(=O)C(C)(C)NC(=O)[C@@H](N)Cc1ccc(O)cc1)[C@@H](C)O)[C@@H](C)O)[C@@H](C)CC)C(=O)N[C@@H](C)C(=O)N[C@@H](C)C(=O)N[C@@H](CCCNC(=N)N)C(=O)N[C@@H](CCC(=O)O)C(=O)N[C@@H](Cc1ccccc1)C(=O)N[C@H](C(=O)N[C@@H](CCC(=O)O)C(=O)N[C@@H](Cc1c[nH]c2ccccc12)C(=O)N[C@@H](CC(C)C)C(=O)N[C@@H](CC(C)C)C(=O)N[C@@H](C)C(=O)NCC(=O)NCC(=O)N1CCC[C@H]1C(=O)N[C@@H](CO)C(=O)N[C@@H](CO)C(=O)NCC(=O)N[C@@H](C)C(=O)NCC(=O)N[C@@H](C)C(=O)N[C@@H](CO)C(=O)N[C@@H](CCC(N)=O)C(=O)N[C@@H](CC(C)C)C(=O)N[C@@H](CO)C(=O)N[C@H](C(=O)N[C@@H](C)C(=O)N[C@@H](CCC(N)=O)C(=O)N[C@H](C(=O)N[C@@H](CCC(N)=O)C(=O)N[C@@H](CCCNC(=N)N)C(=O)N[C@@H](CC(C)C)C(=O)N[C@@H](CO)C(=O)N[C@@H](C)C(=O)N[C@@H](CCC(=O)O)C(=O)N[C@@H](CC(C)C)C(=O)N[C@@H](Cc1c[nH]cn1)C(=O)N[C@@H](CCCCNC(=O)COCCOCCNC(=O)COCCOCCNC(=O)CC[C@H](NC(=O)CCCCCCCCCCCCCCCCCCC(=O)O)C(=O)O)C(=O)N[C@@H](CC(C)C)C(=O)N[C@@H](C)C(=O)N[C@H](C(=O)N[C@@H](CCC(=O)O)C(=O)N1CCC[C@H]1C(=O)N[C@@H](CCCNC(=N)N)C(=O)N[C@H](C(=O)N[C@@H](CCC(=O)O)C(=O)N[C@H](C(=O)NCC(=O)N[C@@H](CO)C(=O)NCC(=O)N[C@@H](CO)C(=O)N1CCC[C@H]1C(N)=O)[C@@H](C)O)[C@@H](C)O)[C@@H](C)O)[C@@H](C)O)[C@@H](C)O)[C@@H](C)CC [Compound 180]
1.7%	CC[C@H](C)[C@H](NC(=O)[C@H](CCC(=O)O)NC(=O)[C@H](CCC(=O)O)NC(=O)[C@H](CC(C)C)NC(=O)[C@H](CC(C)C)NC(=O)[C@H](CCCCNC(=O)COCCOCCNC(=O)COCCOCCNC(=O)CC[C@H](NC(=O)CCCCCCCCCCCCCCCCCCC(=O)O)C(=O)O)NC(=O)[C@H](CO)NC(=O)[C@H](Cc1ccc(O)cc1)NC(=O)[C@H](CC(=O)O)NC(=O)[C@H](CO)NC(=O)[C@@H](NC(=O)[C@H](Cc1ccccc1)NC(=O)[C@@H](NC(=O)CNC(=O)[C@H](CCC(=O)O)NC(=O)C(C)(C)NC(=O)[C@@H](N)Cc1ccc(O)cc1)[C@@H](C)O)[C@@H](C)O)C(=O)N[C@@H](C)C(=O)N[C@@H](C)C(=O)N[C@@H](CCCNC(=N)N)C(=O)N[C@@H](CCC(=O)O)C(=O)N[C@@H](Cc1ccccc1)C(=O)N[C@H](C(=O)N[C@@H](CCC(=O)O)C(=O)N[C@@H](Cc1c[nH]c2ccccc12)C(=O)N[C@@H](CC(C)C)C(=O)N[C@@H](CC(C)C)C(=O)N[C@@H](C)C(=O)NCC(=O)NCC(=O)N1CCC[C@H]1C(=O)N[C@@H](CO)C(=O)N[C@@H](CO)C(=O)N[C@@H](CCC(=O)O)C(=O)N[C@@H](C)C(=O)NCC(=O)N[C@@H](C)C(=O)N[C@@H](CO)C(=O)N[C@@H](Cc1c[nH]cn1)C(=O)N[C@@H](CC(C)C)C(=O)N[C@@H](CO)C(=O)N[C@H](C(=O)N[C@@H](C)C(=O)N[C@@H](CCC(N)=O)C(=O)N[C@@H](CC(C)C)C(=O)NCC(=O)N[C@@H](CCCNC(=N)N)C(=O)N[C@@H](CC(C)C)C(=O)N[C@@H](CO)C(=O)N[C@@H](C)C(=O)N[C@@H](CCC(=O)O)C(=O)N[C@@H](CC(C)C)C(=O)N[C@@H](Cc1c[nH]cn1)C(=O)N[C@@H](CCC(N)=O)C(=O)N[C@@H](CC(C)C)C(=O)N[C@@H](C)C(=O)N[C@H](C(=O)N[C@@H](CCC(=O)O)C(=O)N1CCC[C@H]1C(=O)N[C@@H](CCCNC(=N)N)C(=O)N[C@H](C(=O)N[C@@H](CCC(=O)O)C(=O)N[C@H](C(=O)NCC(=O)N[C@@H](CO)C(=O)NCC(=O)N[C@@H](CO)C(=O)N1CCC[C@H]1C(N)=O)[C@@H](C)O)[C@@H](C)O)[C@@H](C)O)[C@@H](C)O)[C@@H](C)CC [Compound 185]
1.0%	CC[C@H](C)[C@H](NC(=O)[C@H](CCC(=O)O)NC(=O)[C@H](CCC(=O)O)NC(=O)[C@H](CC(C)C)NC(=O)[C@H](CC(C)C)NC(=O)[C@@H](NC(=O)[C@H](CO)NC(=O)[C@H](Cc1ccc(O)cc1)NC(=O)[C@H](CC(=O)O)NC(=O)[C@H](CO)NC(=O)[C@@H](NC(=O)[C@H](Cc1ccccc1)NC(=O)[C@@H](NC(=O)CNC(=O)[C@H](CCC(=O)O)NC(=O)C(C)(C)NC(=O)[C@@H](N)Cc1ccc(O)cc1)[C@@H](C)O)[C@@H](C)O)[C@@H](C)CC)C(=O)N[C@@H](C)C(=O)N[C@@H](C)C(=O)N[C@@H](CCCNC(=N)N)C(=O)N[C@@H](CCC(=O)O)C(=O)N[C@@H](Cc1ccccc1)C(=O)N[C@H](C(=O)N[C@@H](CCC(=O)O)C(=O)N[C@@H](Cc1c[nH]c2ccccc12)C(=O)N[C@@H](CC(C)C)C(=O)N[C@@H](CC(C)C)C(=O)N[C@@H](C)C(=O)NCC(=O)NCC(=O)N1CCC[C@H]1C(=O)N[C@@H](CO)C(=O)N[C@@H](CO)C(=O)NCC(=O)N[C@@H](CCC(=O)O)C(=O)NCC(=O)N[C@@H](CCC(N)=O)C(=O)N[C@@H](C)C(=O)N1CCC[C@H]1C(=O)NCC(=O)N[C@@H](CCC(N)=O)C(=O)N[C@@H](C)C(=O)N1CCC[C@H]1C(=O)NCC(=O)N[C@@H](C)C(=O)N[C@@H](CO)C(=O)N[C@@H](Cc1c[nH]cn1)C(=O)N[C@@H](CC(C)C)C(=O)N[C@@H](CO)C(=O)N[C@H](C(=O)N[C@@H](C)C(=O)N[C@@H](CCC(N)=O)C(=O)N[C@H](C(=O)N[C@@H](CCC(N)=O)C(=O)N[C@@H](CCCNC(=N)N)C(=O)N[C@@H](CC(C)C)C(=O)N[C@@H](CO)C(=O)N[C@@H](C)C(=O)N[C@@H](CCC(=O)O)C(=O)N[C@@H](CC(C)C)C(=O)N[C@@H](Cc1c[nH]cn1)C(=O)N[C@@H](CCCCNC(=O)COCCOCCNC(=O)COCCOCCNC(=O)CC[C@H](NC(=O)CCCCCCCCCCCCCCCCCCC(=O)O)C(=O)O)C(=O)N[C@@H](CC(C)C)C(=O)N[C@@H](C)C(=O)N[C@H](C(=O)N[C@@H](CC(C)C)C(=O)N1CCC[C@H]1C(=O)N[C@@H](CCCNC(=N)N)C(=O)N[C@H](C(=O)N[C@@H](CCC(=O)O)C(=O)N[C@H](C(=O)NCC(=O)N[C@@H](CO)C(=O)NCC(=O)N[C@@H](CO)C(=O)N1CCC[C@H]1C(N)=O)[C@@H](C)O)[C@@H](C)O)[C@@H](C)O)[C@@H](C)O)[C@@H](C)O)[C@@H](C)CC [Compound 147]
0.9%	CC[C@H](C)[C@H](NC(=O)[C@H](CCC(=O)O)NC(=O)[C@H](CCC(=O)O)NC(=O)[C@H](CC(C)C)NC(=O)[C@H](CC(C)C)NC(=O)[C@H](CCCCNC(=O)COCCOCCNC(=O)COCCOCCNC(=O)CC[C@H](NC(=O)CCCCCCCCCCCCCCCCCCC(=O)O)C(=O)O)NC(=O)[C@H](CO)NC(=O)[C@H](Cc1ccc(O)cc1)NC(=O)[C@H](CC(=O)O)NC(=O)[C@H](CO)NC(=O)[C@@H](NC(=O)[C@H](Cc1ccccc1)NC(=O)[C@@H](NC(=O)CNC(=O)[C@H](CCC(=O)O)NC(=O)C(C)(C)NC(=O)[C@@H](N)Cc1ccc(O)cc1)[C@@H](C)O)[C@@H](C)O)C(=O)N[C@@H](C)C(=O)N[C@@H](C)C(=O)N[C@@H](CCCNC(=N)N)C(=O)N[C@@H](CCC(=O)O)C(=O)N[C@@H](Cc1ccccc1)C(=O)N[C@H](C(=O)N[C@@H](CCC(=O)O)C(=O)N[C@@H](Cc1c[nH]c2ccccc12)C(=O)N[C@@H](CC(C)C)C(=O)N[C@@H](CC(C)C)C(=O)N[C@@H](C)C(=O)NCC(=O)NCC(=O)N1CCC[C@H]1C(=O)N[C@@H](CO)C(=O)N[C@@H](CO)C(=O)NCC(=O)N[C@@H](C)C(=O)NCC(=O)N[C@@H](CCC(N)=O)C(=O)N[C@@H](C)C(=O)N1CCC[C@H]1C(=O)NCC(=O)N[C@@H](CCC(=O)O)C(=O)N[C@@H](C)C(=O)N1CCC[C@H]1C(=O)NCC(=O)N[C@@H](C)C(=O)N[C@@H](CO)C(=O)N[C@@H](CCC(=O)O)C(=O)N[C@@H](CC(C)C)C(=O)N[C@@H](CO)C(=O)N[C@H](C(=O)N[C@@H](C)C(=O)N[C@@H](C)C(=O)N[C@@H](CC(C)C)C(=O)NCC(=O)N[C@@H](CCCNC(=N)N)C(=O)N[C@@H](CC(C)C)C(=O)N[C@@H](CO)C(=O)N[C@@H](C)C(=O)N[C@@H](CCC(=O)O)C(=O)N[C@@H](CC(C)C)C(=O)N[C@@H](Cc1c[nH]cn1)C(=O)N[C@@H](CCC(N)=O)C(=O)N[C@@H](CC(C)C)C(=O)N[C@@H](C)C(=O)N[C@H](C(=O)N[C@@H](CCC(=O)O)C(=O)N1CCC[C@H]1C(=O)N[C@@H](CCCNC(=N)N)C(=O)N[C@H](C(=O)N[C@@H](CCC(=O)O)C(=O)N[C@H](C(=O)NCC(=O)N[C@@H](CO)C(=O)NCC(=O)N[C@@H](CO)C(=O)N1CCC[C@H]1C(N)=O)[C@@H](C)O)[C@@H](C)O)[C@@H](C)O)[C@@H](C)O)[C@@H](C)CC [Compound 172]
